Data taken from the supplement of paper PMC11061612.

Legend:
Carboplatin = compound: C1CC(C1)(C(=O)[O-])C(=O)[O-].N.N.[Pt+2] [Carboplatin]; settings: max 10 µM
Method in brief: (§1)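 Cancer cell lines were dosed for 72 hours (final DMSO typically 0.2%) after 24 hours at 37°C and 5% CO2 in 1536-well plates containing 7.5 μl DMEM/F12 or RPMI with 10% FBS. Viability came from CellTiter-Glo 2.0 luminescence, scaled between blank-well and DMSO-well means, and dose responses were fitted to a two-parameter logistic curve with a non-linear mixed effects model. The single-agent IC50 was obtained from this fit.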

AZD5363 = compound: C1CN(CCC1(C(=O)N[C@@H](CCO)C2=CC=C(C=C2)Cl)N)C3=NC=NC4=C3C=CN4 [AZD5363]; settings: max 10 µM
Method in brief: as §1

AZD1775 = compound: C=CCn1c(=O)c2cnc(Nc3ccc(N4CCN(C)CC4)cc3)nc2n1-c1cccc(C(C)(C)O)n1 [AZD1775]; settings: max 3 µM
Method in brief: as §1

Trametinib = compound: CC(=O)Nc1cccc(-n2c(=O)n(C3CC3)c(=O)c3c(Nc4ccc(I)cc4F)n(C)c(=O)c(C)c32)c1 [Trametinib]; settings: max 1 µM
Method in brief: as §1

Paclitaxel = compound: CC(=O)O[C@H]1C(=O)[C@@]2(C)[C@H]([C@H](OC(=O)c3ccccc3)[C@]3(O)C[C@H](OC(=O)[C@H](O)[C@@H](NC(=O)c4ccccc4)c4ccccc4)C(C)=C1C3(C)C)[C@]1(OC(C)=O)CO[C@@H]1C[C@@H]2O [Paclitaxel]; settings: max 3 µM
Method in brief: as §1

Palbociclib = compound: CC(=O)c1c(C)c2cnc(Nc3ccc(N4CCNCC4)cn3)nc2n(C2CCCC2)c1=O [Palbociclib]; settings: max 10 µM
Method in brief: as §1

AZD1390 = compound: CC(C)n1c(=O)n(C)c2cnc3cc(F)c(-c4ccc(OCCCN5CCCCC5)nc4)cc3c21 [AZD1390]; settings: max 0.3 µM
Method in brief: as §1

Venetoclax = compound: CC1(C)CCC(CN2CCN(c3ccc(C(=O)NS(=O)(=O)c4ccc(NCC5CCOCC5)c([N+](=O)[O-])c4)c(Oc4cnc5[nH]ccc5c4)c3)CC2)=C(c2ccc(Cl)cc2)C1 [Venetoclax]; settings: max 1 µM
Method in brief: as §1

Dasatinib = compound: CC1=C(C(=CC=C1)Cl)NC(=O)C2=CN=C(S2)NC3=CC(=NC(=N3)C)N4CCN(CC4)CCO [Dasatinib]; settings: max 2 µM
Method in brief: as §1

SG3199 = compound: CC1=CN2[C@@H](C1)C=NC3=CC(=C(C=C3C2=O)OC)OCCCCCOC4=C(C=C5C(=C4)N=C[C@@H]6CC(=CN6C5=O)C)OC [SG3199]; settings: max 0.001 µM
Method in brief: as §1

AZD2811 = compound: CCN(CCO)CCCOc1ccc2c(Nc3cc(CC(=O)Nc4cccc(F)c4)[nH]n3)ncnc2c1 [AZD2811]; settings: max 1 µM
Method in brief: as §1

SN-38 = compound: CCc1c2c(nc3ccc(O)cc13)-c1cc3c(c(=O)n1C2)COC(=O)[C@]3(O)CC [SN-38]; settings: max 0.3 µM
Method in brief: as §1

AZD0156 = compound: CN(C)CCCOc1ccc(-c2ccc3ncc4c(c3c2)n(C2CCOCC2)c(=O)n4C)cn1 [AZD0156]; settings: max 3 µM
Method in brief: as §1

AZD4320 = compound: CN(CC[C@H](CSC1=CC=CC=C1)NC2=C(C=C(C=C2)S(=O)(=O)NC(=O)C3=CC=C(C=C3)N4CCC(CC4)[C@H](C5=CC=CC=C5C6=CC=C(C=C6)Cl)O)S(=O)(=O)C(F)(F)F)CCO [AZD4320]; settings: max 1 µM
Method in brief: as §1

Alisertib = compound: COc1cc(Nc2ncc3c(n2)-c2ccc(Cl)cc2C(c2c(F)cccc2OC)=NC3)ccc1C(=O)O [Alisertib]; settings: max 10 µM
Method in brief: as §1

Etoposide = compound: COc1cc([C@@H]2c3cc4c(cc3[C@@H](O[C@@H]3O[C@@H]5CO[C@@H](C)O[C@H]5[C@H](O)[C@H]3O)[C@H]3COC(=O)[C@H]23)OCO4)cc(OC)c1O [Etoposide]; settings: max 10 µM
Method in brief: as §1

Gefitinib = compound: COc1cc2ncnc(Nc3ccc(F)c(Cl)c3)c2cc1OCCCN1CCOCC1 [Gefitinib]; settings: max 10 µM
Method in brief: as §1

Prexasertib = compound: COc1cccc(OCCCN)c1-c1cc(Nc2cnc(C#N)cn2)n[nH]1 [Prexasertib]; settings: max 1 µM
Method in brief: as §1

Doxorubicin = compound: COc1cccc2c1C(=O)c1c(O)c3c(c(O)c1C2=O)C[C@@](O)(C(=O)CO)C[C@@H]3O[C@H]1C[C@H](N)[C@H](O)[C@H](C)O1 [Doxorubicin]; settings: max 1 µM
Method in brief: as §1

AZD5153 = compound: COc1nnc2ccc(N3CCC(c4ccc(OCCN5CCN(C)C(=O)[C@H]5C)cc4)CC3)nn12 [AZD5153]; settings: max 1 µM
Method in brief: as §1

Lapatinib = compound: CS(=O)(=O)CCNCc1ccc(-c2ccc3ncnc(Nc4ccc(OCc5cccc(F)c5)c(Cl)c4)c3c2)o1 [Lapatinib]; settings: max 10 µM
Method in brief: as §1

AZD8186 = compound: C[C@@H](Nc1cc(F)cc(F)c1)c1cc(C(=O)N(C)C)cc2c(=O)cc(N3CCOCC3)oc12 [AZD8186]; settings: max 10 µM
Method in brief: as §1

Crizotinib = compound: C[C@@H](Oc1cc(-c2cnn(C3CCNCC3)c2)cnc1N)c1c(Cl)ccc(F)c1Cl [Crizotinib]; settings: max 10 µM
Method in brief: as §1

Savolitinib = compound: C[C@@H](c1ccc2nccn2c1)n1nnc2ncc(-c3cnn(C)c3)nc21 [Savolitinib]; settings: max 1 µM
Method in brief: as §1

AZD6738 = compound: C[C@@H]1COCCN1C2=NC(=NC(=C2)C3(CC3)[S@](=N)(=O)C)C4=C5C=CNC5=NC=C4 [AZD6738]; settings: max 10 µM
Method in brief: as §1

AZD5991 = compound: Cc1c2c(nn1C)CSCc1cc(n(C)n1)CSc1cc(c3ccccc3c1)OCCCc1c(C(=O)O)n(C)c3c-2c(Cl)ccc13 [AZD5991]; settings: max 1 µM
Method in brief: as §1

AZD7648 = compound: Cc1cc2ncnn2cc1Nc1ncc2c(n1)n(C1CCOCC1)c(=O)n2C [AZD7648]; settings: max 10 µM
Method in brief: as §1

Taselisib = compound: Cc1nc(-c2cn3c(n2)-c2ccc(-c4cnn(C(C)(C)C(N)=O)c4)cc2OCC3)n(C(C)C)n1 [Taselisib]; settings: max 10 µM
Method in brief: as §1

Selumetinib = compound: Cn1cnc2c(F)c(Nc3ccc(Br)cc3Cl)c(C(=O)NOCCO)cc21 [Selumetinib]; settings: max 10 µM
Method in brief: as §1

SRA737 = compound: N#Cc1cnc(Nc2cc(NC[C@H]3CNCCO3)c(C(F)(F)F)cn2)cn1 [SRA737]; settings: max 10 µM
Method in brief: as §1

MK-2206 = compound: NC1(c2ccc(-c3nc4ccn5c(=O)[nH]nc5c4cc3-c3ccccc3)cc2)CCC1 [MK-2206]; settings: max 10 µM
Method in brief: as §1

Gemcitabine = compound: Nc1ccn([C@@H]2O[C@H](CO)[C@@H](O)C2(F)F)c(=O)n1 [Gemcitabine]; settings: max 0.3 µM
Method in brief: as §1

[1] = compound: O=C(Nc1ccc2[nH]nc(-c3ccncc3)c2c1)[C@@H]1CCN(CC(=O)N2CCN(c3ccc(-c4ncccn4)cc3)CC2)C1; settings: max 5 µM
Method in brief: as §1

Olaparib = compound: O=C(c1cc(Cc2n[nH]c(=O)c3ccccc23)ccc1F)N1CCN(C(=O)C2CC2)CC1 [Olaparib]; settings: max 10 µM
Method in brief: as §1

5-Fluorouracil = compound: O=c1[nH]cc(F)c(=O)[nH]1 [5-Fluorouracil]; settings: max 20 µM
Method in brief: as §1

Cell Line	IC50, cell viability 72 h (Carboplatin) [µM]	IC50, cell viability 72 h (AZD5363) [µM]	IC50, cell viability 72 h (AZD1775) [µM]	IC50, cell viability 72 h (Trametinib) [µM]	IC50, cell viability 72 h (Paclitaxel) [µM]	IC50, cell viability 72 h (Palbociclib) [µM]	IC50, cell viability 72 h (AZD1390) [µM]	IC50, cell viability 72 h (Venetoclax) [µM]	IC50, cell viability 72 h (Dasatinib) [µM]	IC50, cell viability 72 h (SG3199) [µM]	IC50, cell viability 72 h (AZD2811) [µM]	IC50, cell viability 72 h (SN-38) [µM]	IC50, cell viability 72 h (AZD0156) [µM]	IC50, cell viability 72 h (AZD4320) [µM]	IC50, cell viability 72 h (Alisertib) [µM]	IC50, cell viability 72 h (Etoposide) [µM]	IC50, cell viability 72 h (Gefitinib) [µM]	IC50, cell viability 72 h (Prexasertib) [µM]	IC50, cell viability 72 h (Doxorubicin) [µM]	IC50, cell viability 72 h (AZD5153) [µM]	IC50, cell viability 72 h (Lapatinib) [µM]	IC50, cell viability 72 h (AZD8186) [µM]	IC50, cell viability 72 h (Crizotinib) [µM]	IC50, cell viability 72 h (Savolitinib) [µM]	IC50, cell viability 72 h (AZD6738) [µM]	IC50, cell viability 72 h (AZD5991) [µM]	IC50, cell viability 72 h (AZD7648) [µM]	IC50, cell viability 72 h (Taselisib) [µM]	IC50, cell viability 72 h (Selumetinib) [µM]	IC50, cell viability 72 h (SRA737) [µM]	IC50, cell viability 72 h (MK-2206) [µM]	IC50, cell viability 72 h (Gemcitabine) [µM]	IC50, cell viability 72 h [1] [µM]	IC50, cell viability 72 h (Olaparib) [µM]	IC50, cell viability 72 h (5-Fluorouracil) [µM]
GR-ST (B-Lymphoblastic Leukemia)	> 10	4.13	0.375	> 1	0.00998	3.06	> 0.3	> 1	> 2	> 0.001	> 1	0.00671	> 3	> 1	> 10	9.02	> 10	0.0168	0.684	0.0412	5.91	4.95	2.38	> 1	1.74	> 1	> 10	0.874	> 10	1.75	2.26	0.0198	> 5	> 10	> 20
ES8 (Ewing's Sarcoma)	> 10	8.22	0.522	> 1	< 0.003	9.5	> 0.3	> 1	> 2	> 0.001	0.0058	0.00141	> 3	> 1	0.0162	0.358	> 10	0.0417	0.0798	0.165	> 10	> 10	1.47	> 1	3.46	> 1	> 10	0.8	> 10	> 10	5.79	0.00564	> 5	3.25	> 20
CAMA-1 (Breast Carcinoma)	> 10	4.86	> 3	> 1	0.112	> 10	> 0.3	> 1	> 2	> 0.001	> 1	> 0.3	> 3	> 1	> 10	> 10	> 10	> 1	> 1	> 1	> 10	7.76	> 10	> 1	> 10	> 1	> 10	> 10	> 10	> 10	> 10	> 0.3	> 5	> 10	> 20
WIL2-NS (Non-Cancerous)	> 10	2.38	0.231	> 1	0.0107	0.629	> 0.3	> 1	1.35	> 0.001	> 1	0.00465	> 3	> 1	0.927	0.375	> 10	0.00604	0.105	0.0448	> 10	> 10	> 10	> 1	1.26	> 1	> 10	6.95	> 10	1.73	6.09	0.0078	> 5	> 10	> 20
DND-41 (T-Lymphoblastic Leukemia)	> 10	> 10	0.334	> 1	> 3	> 10	> 0.3	0.546	> 2	> 0.001	> 1	0.00288	> 3	0.0338	> 10	0.763	> 10	0.00675	0.424	0.595	7.51	> 10	4.77	> 1	1.5	> 1	> 10	> 10	> 10	1.09	> 10	0.0954	> 5	> 10	> 20
